{
  "source": "paper PMC6444592",
  "about": "“Citrullination of HP1γ chromodomain affects association with chromatin” (Epigenetics & Chromatin, 2019)",
  "key": {"mESCs": {"tested_on": "mESCs", "assay": "pluripotency marker mRNA (RT-PCR) and morphology of mESCs", "type": "cell-based, mouse", "settings": "mESCs stably expressing fusion protein; +/− LIF; n = 2", "procedure": "Parental E14 mouse embryonic stem cell (mESC) line was profiled by transcriptome analysis, qPCR and potency assays and was routinely tested for mycoplasma contamination and tested negative. Cells were cultured in DMEM (Gibco) supplemented with 15% standard FCS (Gibco), 0.1 mM non-essential amino acids (Gibco), 1% penicillin/streptomycin, 2 mM L-glutamine (Gibco), 1 mM sodium pyruvate (Gibco), 0.1 mM β-mercaptoethanol (Life Technologies) and 10^6 units/l mLIF (ESGRO, Millipore). E14 cells were stored in incubators at 37 °C in 7.5% CO2 (100% humidity) and maintained in 0.1% gelatin coated 10-cm culture dishes with 1:6 passaging every 2 days. Media was changed on a daily basis. E14 ESCs expressing mouse mEos3.2–HaloTag-HP1 fusion proteins were generated by transfecting appropriate pSB7 plasmids into E14 cells using Lipofectamine 2000 transfection reagent (Invitrogen), followed by selection in 600 µg/ml geneticin (Life Technologies). After 2 weeks of geneticin selection, cells were sorted using a Sony SH800S cell sorter for the expression of mEos3.2. […]\nCells were lysed using QIAzol® lysis reagent (Qiagen) and total RNA was isolated using RNeasy® Mini Kit with in column DNase treatment (Qiagen). […] Relative expression was calculated with the 2^−ΔΔCt method, normalising to the housekeeping gene β-actin. Data were analysed using GraphPad Prism 7 software. […]"}, "chromatin": {"tested_on": "chromatin", "assay": "single-particle tracking, 500 ms, motion blurring: chromatin residence time", "type": "cell-based, mouse", "settings": "for Percentage, Specific / Percentage, Unspecific / Residence time, Specific / Residence time, Unspecific / Residence time, specific binding: 500 ms; for Residence time, specific binding / specific residence time, in words: −LIF 72 h; for Residence time, specific binding: mESCs, mean ± SD (n = 3); for specific residence time, in words: p value left to right = 0.027, 0.036; for unspecific residence time, effect of LIF withdrawal: ns. p value > 0.841", "excerpt": "Although HP1 is a multifunctional protein, its best-characterised function is its ability to specifically bind to H3 tails harbouring H3K9me3. This underpins the establishment of localised, as well as higher-order, chromatin domains. Indeed, binding of structural chromatin proteins, such as HP1, is crucial in establishing heterochromatin during stem cell differentiation. We therefore decided to focus on the chromatin bound fraction of HP1γ. We used a concept called motion blurring in which long exposures are used to blur molecules that are diffusing so they are not detected. Therefore, only molecules bound throughout the long exposure are imaged. We performed SPT at 500 ms time resolution of mESCs expressing either HP1γWT or HP1γR38/9A mutant proteins (−/+ LIF). Movies of representative cells are shown in Additional file 8: Movie S1, Additional file 9: Movie S2, Additional file 10: Movie S3, and Additional file 11: Movie S4.\nParental E14 mouse embryonic stem cell (mESC) line was profiled by transcriptome analysis, qPCR and potency assays and was routinely tested for mycoplasma contamination and tested negative. Cells were cultured in DMEM (Gibco) supplemented with 15% standard FCS (Gibco), 0.1 mM non-essential amino acids (Gibco), 1% penicillin/streptomycin, 2 mM L-glutamine (Gibco), 1 mM sodium pyruvate (Gibco), 0.1 mM β-mercaptoethanol (Life Technologies) and 10^6 units/l mLIF (ESGRO, Millipore). E14 cells were stored in incubators at 37 °C in 7.5% CO2 (100% humidity) and maintained in 0.1% gelatin coated 10-cm culture dishes with 1:6 passaging every 2 days. Media was changed on a daily basis. E14 ESCs expressing mouse mEos3.2–HaloTag-HP1 fusion proteins were generated by transfecting appropriate pSB7 plasmids into E14 cells using Lipofectamine 2000 transfection reagent (Invitrogen), followed by selection in 600 µg/ml geneticin (Life Technologies). After 2 weeks of geneticin selection, cells were sorted using a Sony SH800S cell sorter for the expression of mEos3.2. Differentiation of ESCs was induced by LIF withdrawal. ESCs cultured in complete ES cell media (+ LIF) were trypsinised and washed twice in 1x PBS to remove residual LIF, seeded into ES cell media without LIF and incubated for 24, 48 or 72 h.\nAn IX73 Olympus inverted microscope was used with circularly polarised laser beams aligned and focused at the back aperture of an Olympus 1.40 NA 100 × oil objective (Universal Plan Super Apochromat, 100 × , NA 1.40, UPLSAPO100XO/1.4). Continuous wavelength diode laser light sources used include a 561-nm (Cobolt, Jive 200, 200 mW) and a 405-nm laser (Stradus, Toptica, 405–100, 100 mW). Oblique angle illumination was achieved by aligning the laser off axis such that the emergent beam at the sample interface was near-collimated and incident at an angle slightly less than the critical angle θc ~ 67° for a glass/water interface. This generated a ~ 50 μm diameter excitation footprint. The power of the collimated beams at the back aperture of the microscope was 10 kW/cm^2 and 10–100 W/cm^2 for the 561-nm and 405-nm laser beams, respectively. The lasers were reflected by dichroic mirrors (Semrock, Di01-R405/488/561/635). The fluorescence emission was collected through the same objective and then further filtered using a combination of long-pass and band-pass filters (BLP01-561R and FF01-587/35 for 561 nm excitation). The emission signal was projected onto an EMCCD (Photometrics, Evolve 512 Delta) with an electron multiplication gain of 250 ADU/photon operating in a frame transfer mode.\nmESCs expressing mEos3.2–HaloTag-tagged HP1γ were passaged 2 days before imaging onto 35-mm glass bottom dishes No 1.0 (MatTek Corporation P35G-1.0-14-C Case) in phenol red-free serum and LIF conditions, if not stated otherwise. […]"}},
  "data": [
    {"substance": "HP1γWT: full-length mouse HP1γ wild type, as GST or mEos3.2–HaloTag fusion protein", "values": [
      {"measurement": "effect of exogenous expression on pluripotency marker mRNA and morphology", "setting": "mESCs", "result": "no discernible effect on mESC differentiation"},
      {"measurement": "Percentage, Specific", "setting": "chromatin; +LIF, replicate i", "result": 91.000, "unit": "%"},
      {"measurement": "Percentage, Unspecific", "setting": "chromatin; +LIF, replicate i", "result": 9.000, "unit": "%"},
      {"measurement": "Residence time, Specific", "setting": "chromatin; +LIF, replicate i", "result": 36.000, "unit": "s"},
      {"measurement": "Residence time, Unspecific", "setting": "chromatin; +LIF, replicate i", "result": 4.400, "unit": "s"},
      {"measurement": "Percentage, Specific", "setting": "chromatin; +LIF, replicate ii", "result": 93.400, "unit": "%"},
      {"measurement": "Percentage, Unspecific", "setting": "chromatin; +LIF, replicate ii", "result": 6.600, "unit": "%"},
      {"measurement": "Residence time, Specific", "setting": "chromatin; +LIF, replicate ii", "result": 27.527, "unit": "s"},
      {"measurement": "Residence time, Unspecific", "setting": "chromatin; +LIF, replicate ii", "result": 1.549, "unit": "s"},
      {"measurement": "Percentage, Specific", "setting": "chromatin; +LIF, replicate iii", "result": 87.000, "unit": "%"},
      {"measurement": "Percentage, Unspecific", "setting": "chromatin; +LIF, replicate iii", "result": 13.000, "unit": "%"},
      {"measurement": "Residence time, Specific", "setting": "chromatin; +LIF, replicate iii", "result": 22.800, "unit": "s"},
      {"measurement": "Residence time, Unspecific", "setting": "chromatin; +LIF, replicate iii", "result": 1.500, "unit": "s"},
      {"measurement": "Residence time, specific binding", "setting": "chromatin", "result": "49.2 ± 12.3", "unit": "s"},
      {"measurement": "specific residence time, in words", "setting": "chromatin", "result": "significantly increased"},
      {"measurement": "increase of specific residence time upon differentiation", "setting": "chromatin; −LIF 72 h versus +LIF", "result": 20, "unit": "s"},
      {"measurement": "unspecific residence time, effect of LIF withdrawal", "setting": "chromatin; −LIF 72 h versus +LIF", "result": "no effect"},
      {"measurement": "Percentage, Specific", "setting": "chromatin; −LIF, replicate i", "result": 88.000, "unit": "%"},
      {"measurement": "Percentage, Unspecific", "setting": "chromatin; −LIF, replicate i", "result": 12.000, "unit": "%"},
      {"measurement": "Residence time, Specific", "setting": "chromatin; −LIF, replicate i", "result": 55.000, "unit": "s"},
      {"measurement": "Residence time, Unspecific", "setting": "chromatin; −LIF, replicate i", "result": 6.000, "unit": "s"},
      {"measurement": "Percentage, Specific", "setting": "chromatin; −LIF, replicate ii", "result": 93.500, "unit": "%"},
      {"measurement": "Percentage, Unspecific", "setting": "chromatin; −LIF, replicate ii", "result": 6.500, "unit": "%"},
      {"measurement": "Residence time, Specific", "setting": "chromatin; −LIF, replicate ii", "result": 57.488, "unit": "s"},
      {"measurement": "Residence time, Unspecific", "setting": "chromatin; −LIF, replicate ii", "result": 1.811, "unit": "s"},
      {"measurement": "Percentage, Specific", "setting": "chromatin; −LIF, replicate iii", "result": 88.000, "unit": "%"},
      {"measurement": "Percentage, Unspecific", "setting": "chromatin; −LIF, replicate iii", "result": 12.000, "unit": "%"},
      {"measurement": "Residence time, Specific", "setting": "chromatin; −LIF, replicate iii", "result": 35.000, "unit": "s"},
      {"measurement": "Residence time, Unspecific", "setting": "chromatin; −LIF, replicate iii", "result": 2.300, "unit": "s"}
    ]},
    {"substance": "HP1γR38/9A: HP1γ with alanine substitutions at amino acids 38 and 39 to mimic citrullination", "values": [
      {"measurement": "effect of exogenous expression on pluripotency marker mRNA and morphology", "setting": "mESCs", "result": "no discernible effect on mESC differentiation"},
      {"measurement": "Percentage, Specific", "setting": "chromatin; +LIF, replicate i", "result": 89.000, "unit": "%"},
      {"measurement": "Percentage, Unspecific", "setting": "chromatin; +LIF, replicate i", "result": 11.000, "unit": "%"},
      {"measurement": "Residence time, Specific", "setting": "chromatin; +LIF, replicate i", "result": 26.000, "unit": "s"},
      {"measurement": "Residence time, Unspecific", "setting": "chromatin; +LIF, replicate i", "result": 4.100, "unit": "s"},
      {"measurement": "Percentage, Specific", "setting": "chromatin; +LIF, replicate ii", "result": 90.900, "unit": "%"},
      {"measurement": "Percentage, Unspecific", "setting": "chromatin; +LIF, replicate ii", "result": 9.100, "unit": "%"},
      {"measurement": "Residence time, Specific", "setting": "chromatin; +LIF, replicate ii", "result": 17.900, "unit": "s"},
      {"measurement": "Residence time, Unspecific", "setting": "chromatin; +LIF, replicate ii", "result": 2.100, "unit": "s"},
      {"measurement": "Percentage, Specific", "setting": "chromatin; +LIF, replicate iii", "result": 82.500, "unit": "%"},
      {"measurement": "Percentage, Unspecific", "setting": "chromatin; +LIF, replicate iii", "result": 17.500, "unit": "%"},
      {"measurement": "Residence time, Specific", "setting": "chromatin; +LIF, replicate iii", "result": 17.400, "unit": "s"},
      {"measurement": "Residence time, Unspecific", "setting": "chromatin; +LIF, replicate iii", "result": 1.300, "unit": "s"},
      {"measurement": "Residence time, specific binding", "setting": "chromatin", "result": "29.5 ± 4.1", "unit": "s"},
      {"measurement": "specific residence time, in words", "setting": "chromatin", "result": "significantly lower than for HP1γWT molecules"},
      {"measurement": "specific residence time, in words", "setting": "chromatin; listed as R38/9A mutant HP1γ", "result": "considerably shorter"},
      {"measurement": "unspecific residence time, effect of LIF withdrawal", "setting": "chromatin; −LIF 72 h versus +LIF", "result": "no effect"},
      {"measurement": "Percentage, Specific", "setting": "chromatin; −LIF, replicate i", "result": 83.000, "unit": "%"},
      {"measurement": "Percentage, Unspecific", "setting": "chromatin; −LIF, replicate i", "result": 17.000, "unit": "%"},
      {"measurement": "Residence time, Specific", "setting": "chromatin; −LIF, replicate i", "result": 34.000, "unit": "s"},
      {"measurement": "Residence time, Unspecific", "setting": "chromatin; −LIF, replicate i", "result": 4.900, "unit": "s"},
      {"measurement": "Percentage, Specific", "setting": "chromatin; −LIF, replicate ii", "result": 90.800, "unit": "%"},
      {"measurement": "Percentage, Unspecific", "setting": "chromatin; −LIF, replicate ii", "result": 9.200, "unit": "%"},
      {"measurement": "Residence time, Specific", "setting": "chromatin; −LIF, replicate ii", "result": 28.500, "unit": "s"},
      {"measurement": "Residence time, Unspecific", "setting": "chromatin; −LIF, replicate ii", "result": 1.700, "unit": "s"},
      {"measurement": "Percentage, Specific", "setting": "chromatin; −LIF, replicate iii", "result": 88.200, "unit": "%"},
      {"measurement": "Percentage, Unspecific", "setting": "chromatin; −LIF, replicate iii", "result": 11.800, "unit": "%"},
      {"measurement": "Residence time, Specific", "setting": "chromatin; −LIF, replicate iii", "result": 25.900, "unit": "s"},
      {"measurement": "Residence time, Unspecific", "setting": "chromatin; −LIF, replicate iii", "result": 1.800, "unit": "s"}
    ]}
  ]
}
